{"source": "patent US20250197864A1", "about": "“LNCRNA TRANSCRIPTS IN MELANOMAGENESIS” (The Regents of the University of California, priority 2021, published 2025)", "system": "gene expression in D04 melanoma cells", "assay": "RNA-Seq differential expression analysis (DESeq2)", "format": "cell-based, human", "method": "Total RNA was isolated using the RNeasy mini Kit (QIAGEN) following the manufacturer's protocol. Quality check for extracted RNA was done using 2100 Bioanalyzer (Agilent Technologies, USA) or Tapestation System (Agilent Technologies, USA). […] For samples used for identification of MAPK-responsive lncRNAs, paired-end, 101-bp sequencing was performed by Centrillion Genomic Services (Centrillion Biosciences, USA) on an Illumina HiSeq 2000. For DE gene analysis of ASO-transfected D04 samples, paired-end, 2×150-bp sequencing was performed by Genewiz (USA) on a Illumina HiSeq.\nSequence reads were aligned to the human genome (hg19) using TopHat (Version 2.0.11).\nDifferential expression (DE) analysis was done using DESeq2. Differentially expressed genes were defined by more than 1.5-fold changes (log 2 >0.58 or <−0.58) in expression with FDR<0.05. GO term analysis was done using DAVID Functional Annotation Clustering analysis.\nTo examine the biomolecular changes upon TRASH-inhibition in melanoma, D04 cells were treated with TRASH-ASOs (SEQ ID NO:15) and Control-ASOs and RNA was extracted and used for RNA-Seq. […] These GO terms consisted of genes encoding growth factors, tyrosine kinases, G protein coupled receptor subunits, and collagen subunits. Scatter plot diagram showing differential gene expression after TRASH-ASO treatment compared to Control-ASO treatment. (cut-off for significance was adjusted p-value <0.05). Data was obtained from RNA-Seq of D04 melanoma cells, treatment period was three days. (FIG. 5c)", "data": [{"sequence": "GACTGGAGATAATTAA (gapmer, pattern not given here) [SEQ ID NO: 15, GapmeR ASO targeting AC004540.4 (TRASH), exon region of both isoforms; used for in vitro experiments]", "values": [{"measurement": "log2FoldChange", "setting": "LINC00689 (ENSG00000231419)", "result": 1.29}, {"measurement": "log2FoldChange", "setting": "LINC00707 (ENSG00000238266)", "result": 1.936}, {"measurement": "log2FoldChange", "setting": "LINC00879 (ENSG00000239589)", "result": "−0.6051"}, {"measurement": "log2FoldChange", "setting": "LINC00957 (ENSG00000235314)", "result": 1.503}, {"measurement": "log2FoldChange", "setting": "LINC00973 (ENSG00000240476)", "result": 1.339}, {"measurement": "log2FoldChange", "setting": "LINC01204 (ENSG00000229563)", "result": 1.543}, {"measurement": "log2FoldChange", "setting": "LINC01444 (ENSG00000264301)", "result": 1.479}, {"measurement": "log2FoldChange", "setting": "LINC01468 (ENSG00000231131)", "result": 1.433}, {"measurement": "log2FoldChange", "setting": "LINC01505 (ENSG00000234323)", "result": "−0.6329"}, {"measurement": "log2FoldChange", "setting": "LINC01583 (ENSG00000259518)", "result": 1.348}, {"measurement": "log2FoldChange", "setting": "LINC01638 (ENSG00000233521)", "result": 1.544}, {"measurement": "log2FoldChange", "setting": "LINC01770 (ENSG00000225285)", "result": "−0.5999"}, {"measurement": "log2FoldChange", "setting": "LINC02009 (ENSG00000283646)", "result": 2.6101}, {"measurement": "log2FoldChange", "setting": "LINC02109 (ENSG00000259786)", "result": "−0.684"}, {"measurement": "log2FoldChange", "setting": "LINC02302 (ENSG00000258998)", "result": 1.424}, {"measurement": "log2FoldChange", "setting": "LINC02506 (ENSG00000251129)", "result": "−0.687"}, {"measurement": "log2FoldChange", "setting": "LINC02551 (ENSG00000254842)", "result": 1.274}, {"measurement": "log2FoldChange", "setting": "LOXL2 (ENSG00000134013)", "result": "−0.5824"}, {"measurement": "log2FoldChange", "setting": "LOXL3 (ENSG00000115318)", "result": "−0.6239"}, {"measurement": "log2FoldChange", "setting": "LPAR1 (ENSG00000198121)", "result": "−0.683"}, {"measurement": "log2FoldChange", "setting": "LRRC2 (ENSG00000163827)", "result": 1.394}, {"measurement": "log2FoldChange", "setting": "LRRC17 (ENSG00000128606)", "result": "−0.6716"}, {"measurement": "log2FoldChange", "setting": "LRRK1 (ENSG00000154237)", "result": "−0.6611"}, {"measurement": "log2FoldChange", "setting": "MACROD2 (ENSG00000172264)", "result": "−0.705"}, {"measurement": "log2FoldChange", "setting": "MAML2 (ENSG00000184384)", "result": "−0.6085"}, {"measurement": "log2FoldChange", "setting": "MAP3K3 (ENSG00000198909)", "result": "−0.63"}, {"measurement": "log2FoldChange", "setting": "MAP3K7CL (ENSG00000156265)", "result": 1.53}, {"measurement": "log2FoldChange", "setting": "MAP7D2 (ENSG00000184368)", "result": 1.513}, {"measurement": "log2FoldChange", "setting": "MATN1 (ENSG00000162510)", "result": 1.294}, {"measurement": "log2FoldChange", "setting": "MCF2L (ENSG00000126217)", "result": 3.367}, {"measurement": "log2FoldChange", "setting": "MECR (ENSG00000116353)", "result": "−0.6676"}, {"measurement": "log2FoldChange", "setting": "MEGF9 (ENSG00000106780)", "result": "−0.634"}, {"measurement": "log2FoldChange", "setting": "MEIS1 (ENSG00000143995)", "result": "−0.6955"}, {"measurement": "log2FoldChange", "setting": "MLLT1 (ENSG00000130382)", "result": "−0.682"}, {"measurement": "log2FoldChange", "setting": "MMP3 (ENSG00000149968)", "result": 1.815}, {"measurement": "log2FoldChange", "setting": "MPP4 (ENSG00000082126)", "result": 1.479}, {"measurement": "log2FoldChange", "setting": "MRGPRX4 (ENSG00000179817)", "result": 1.367}, {"measurement": "log2FoldChange", "setting": "MSANTD2 (ENSG00000120458)", "result": "−0.6954"}, {"measurement": "log2FoldChange", "setting": "MUC4 (ENSG00000145113)", "result": 2.706}, {"measurement": "log2FoldChange", "setting": "MVB12B (ENSG00000196814)", "result": "−0.6767"}, {"measurement": "log2FoldChange", "setting": "MYBPH (ENSG00000133055)", "result": "−0.6322"}, {"measurement": "log2FoldChange", "setting": "MYCT1 (ENSG00000120279)", "result": 3.863}, {"measurement": "log2FoldChange", "setting": "MYH16 (ENSG00000002079)", "result": 1.514}, {"measurement": "log2FoldChange", "setting": "MYOCD (ENSG00000141052)", "result": "−0.6639"}, {"measurement": "log2FoldChange", "setting": "NA (ENSG00000170647)", "result": "−0.6428"}, {"measurement": "log2FoldChange", "setting": "NAP1L3 (ENSG00000186310)", "result": 1.339}, {"measurement": "log2FoldChange", "setting": "NBEA (ENSG00000172915)", "result": "−0.6249"}, {"measurement": "log2FoldChange", "setting": "NBEAP1 (ENSG00000258590)", "result": 1.338}, {"measurement": "log2FoldChange", "setting": "NCALD (ENSG00000104490)", "result": "−0.6411"}, {"measurement": "log2FoldChange", "setting": "NCAM1 (ENSG00000149294)", "result": "−0.6126"}, {"measurement": "log2FoldChange", "setting": "NCKAP5L (ENSG00000167566)", "result": "−0.6233"}, {"measurement": "log2FoldChange", "setting": "NES (ENSG00000132688)", "result": "−0.6119"}, {"measurement": "log2FoldChange", "setting": "NLRC3 (ENSG00000167984)", "result": 1.713}, {"measurement": "log2FoldChange", "setting": "NLRP1 (ENSG00000091592)", "result": "−0.7071"}, {"measurement": "log2FoldChange", "setting": "NLRP3 (ENSG00000162711)", "result": 2.515}, {"measurement": "log2FoldChange", "setting": "NLRP5 (ENSG00000171487)", "result": 6.997}, {"measurement": "log2FoldChange", "setting": "NLRP10 (ENSG00000182261)", "result": 1.584}, {"measurement": "log2FoldChange", "setting": "NOSTRIN (ENSG00000163072)", "result": "−0.6677"}, {"measurement": "log2FoldChange", "setting": "NR2F1 (ENSG00000175745)", "result": "−0.6433"}, {"measurement": "log2FoldChange", "setting": "NR2F1-AS1 (ENSG00000237187)", "result": "−0.5814"}, {"measurement": "log2FoldChange", "setting": "OLFML2A (ENSG00000185585)", "result": "−0.6037"}, {"measurement": "log2FoldChange", "setting": "ONECUT2 (ENSG00000119547)", "result": 1.306}, {"measurement": "log2FoldChange", "setting": "OPRK1 (ENSG00000082556)", "result": 1.22}, {"measurement": "log2FoldChange", "setting": "OVAAL (ENSG00000236719)", "result": 1.572}, {"measurement": "log2FoldChange", "setting": "P2RX6 (ENSG00000099957)", "result": "−0.6686"}, {"measurement": "log2FoldChange", "setting": "P2RX7 (ENSG00000089041)", "result": "−0.5889"}, {"measurement": "log2FoldChange", "setting": "PADI1 (ENSG00000142623)", "result": 2.566}, {"measurement": "log2FoldChange", "setting": "PADI3 (ENSG00000142619)", "result": 1.708}, {"measurement": "log2FoldChange", "setting": "PAPPA (ENSG00000182752)", "result": "−0.6776"}, {"measurement": "log2FoldChange", "setting": "PCDH12 (ENSG00000113555)", "result": 1.386}, {"measurement": "log2FoldChange", "setting": "PCDHB15 (ENSG00000113248)", "result": "−0.6069"}, {"measurement": "log2FoldChange", "setting": "PDE2A (ENSG00000186642)", "result": 1.553}, {"measurement": "log2FoldChange", "setting": "PDE8A (ENSG00000073417)", "result": "−0.6263"}, {"measurement": "log2FoldChange", "setting": "PEAR1 (ENSG00000187800)", "result": 1.726}, {"measurement": "log2FoldChange", "setting": "PGM5P2 (ENSG00000277778)", "result": 1.447}, {"measurement": "log2FoldChange", "setting": "PIGR (ENSG00000162896)", "result": 1.274}, {"measurement": "log2FoldChange", "setting": "PIWIL2 (ENSG00000197181)", "result": 1.787}, {"measurement": "log2FoldChange", "setting": "PKHD1L1 (ENSG00000205038)", "result": 1.46}, {"measurement": "log2FoldChange", "setting": "PKIA (ENSG00000171033)", "result": "−0.6985"}, {"measurement": "log2FoldChange", "setting": "PLA2G7 (ENSG00000146070)", "result": 1.312}, {"measurement": "log2FoldChange", "setting": "PLAT (ENSG00000104368)", "result": "−0.6194"}, {"measurement": "log2FoldChange", "setting": "PLCD4 (ENSG00000115556)", "result": "−0.6812"}, {"measurement": "log2FoldChange", "setting": "PLCL1 (ENSG00000115896)", "result": "−0.6782"}, {"measurement": "log2FoldChange", "setting": "PLCXD2 (ENSG00000240891)", "result": 1.882}, {"measurement": "log2FoldChange", "setting": "PLEKHA2 (ENSG00000169499)", "result": "−0.6601"}, {"measurement": "log2FoldChange", "setting": "PLIN4 (ENSG00000167676)", "result": "−0.6819"}, {"measurement": "log2FoldChange", "setting": "POU2F3 (ENSG00000137709)", "result": 1.244}]}]}
